Assay results taken from patent publication US12540161B2, “Linkers” (BicycleTx Limited, priority 2020, dated 2026).

Experiments:
in vitro = details: for fold increase in half-life vs Cit-Val: 2 μM; for half-life at 2 μM: plasma
Description: Pooled frozen plasma was thawed in a water bath at 37° C. Plasma was centrifuged at 4000 rpm for 5 min and the clots were removed if any. The pH will be adjusted to 7.4±0.1 if required. 1 mM stock solution was prepared with DMSO. Propantheline (positive control) was prepared by making a 100 μM working solution by diluting 5 μL of the stock solution (10 mM) with 495 μL ultra pure water. 100 μM working solutions of test compounds were made up by diluting 10 μL of the stock solution (1 mM) with 90 μL DMSO. 98 μL of blank plasma was spiked with 2 μL of dosing solution (100 μM) to achieve 2 μM of the final concentration in duplicate and samples were incubated at 37° C. in a water bath. […] An aliquot of supernatant (150 μL) was transferred from each well before submitting for LC-MS/MS analysis.
The % remaining test compound after incubation in plasma was calculated using following equation: Remaining=100×(PAR at appointed incubation time/PAR at T0 time)
where PAR is the peak area ratio of analyte versus internal standard (IS).
The half-life (T½) was calculated from a log linear plot of concentration versus time.

Cathepsin B = Cathepsin B (Homo sapiens, UniProt P07858); assay: Cathepsin B (CatB) cleavage assay; format: biochemical; details: for % Parent remaining after incubation with CatB, T = 1 h / % Parent remaining after incubation with CatB, T = 4 h / % Parent remaining after incubation with CatB, T = 24 h: norfloxacin linker compounds; for % Parent remaining after incubation with CatB, 0 h / % Parent remaining after incubation with CatB, 1 h / % Parent remaining after incubation with CatB, 2 h / % Parent remaining after incubation with CatB, 4 h / % Parent remaining after incubation with CatB, 6 h / % Parent remaining after incubation with CatB, 24 h / half-life at 40 μM: BTCs; for half-life at 40 μM: read-out: CatB t1/2 (converted)
Description: 15 μL of test compound solution (2 mM in DMSO) was added to the incubation plate in duplicate. 30 μL of Cathepsin B stock solution (16 μM) was pre-activated with 1500 μL activation buffer for 10 min at room temperature. The Cathepsin B solution was diluted in 13.17 mL water, then 735 μL activatived enzyme mixture was added to the incubation plate. The mixture was incubated at 37° C. in a waterbath. […] The samples were mixed and centrifuged at 4000 rpm for 20 min. 50 μL of supernatant was taken into a new plate containing 150 μL ultra-pure water and the samples mixed thoroughly before submitting to LC-MS/MS analysis.

[1] = pH 7.4, Mouse plasma t1/2 (EDTA), BTCs, EDTA anticoagulant

Row | fold increase in half-life vs Cit-Val (in vitro; mouse, pH 7.4) | half-life at 2 μM (in vitro; mouse, pH 7.4) | % Parent remaining after incubation with CatB, T = 1 h (Cathepsin B) | % Parent remaining after incubation with CatB, T = 4 h (Cathepsin B) | % Parent remaining after incubation with CatB, T = 24 h (Cathepsin B) | SMILES | half-life at 2 μM (in vitro; [1]) | % Parent remaining after incubation with CatB, 0 h (Cathepsin B) | % Parent remaining after incubation with CatB, 1 h (Cathepsin B) | % Parent remaining after incubation with CatB, 2 h (Cathepsin B) | % Parent remaining after incubation with CatB, 4 h (Cathepsin B) | % Parent remaining after incubation with CatB, 6 h (Cathepsin B) | % Parent remaining after incubation with CatB, 24 h (Cathepsin B) | half-life at 40 μM (Cathepsin B) | half-life at 2 μM (in vitro; pH 7.4, Mouse plasma t1/2 expt 2 (EDTA), BTCs, EDTA anticoagulant, experiment 2)
1 | – | – | – | – | – | CC[C@H](C)[C@@H]([C@@H](CC(=O)N1CCC[C@H]1[C@H](OC)[C@@H](C)C(=O)N[C@H](C)[C@@H](O)c1ccccc1)OC)N(C)C(=O)[C@@H](NC(=O)[C@H](C(C)C)N(C)C(=O)OCc1ccc(NC(=O)[C@H](CCN)NC(=O)[C@@H](NC(=O)[C@H](CCC(=O)O)NC(=O)Cn2cc(CCC(=O)NCCC(=O)N(C)CC(=O)N(C)CC(=O)N(C)CC(=O)N(C)CC(=O)N(C)CC(=O)N(C)CC(=O)N(C)CC(=O)N(C)CC(=O)N(C)CC(=O)N(C)CC(=O)N[C@@H](C)C(=O)N[C@H]3CN(C)Cc4cc5cc(c4)CN(C)C[C@@H](C(N)=O)NC(=O)[C@H](C(C)(C)C)NC(=O)[C@H](CC(=O)O)NC(=O)[C@H](Cc4ccc(O)cc4)NC(=O)[C@H](Cc4ccccc4)NC(=O)[C@H](CC(=O)O)NC(=O)[C@H](CCC(=O)O)NC(=O)[C@H](CSC5)NC(=O)[C@@H](C)NC(=O)[C@H](Cc4cccc5ccccc45)NC(=O)[C@H](CCC(=O)O)NC(=O)[C@H](CC(N)=O)NC(=O)[C@@H](C)NC3=O)nn2)C(c2ccccc2)c2ccccc2)cc1)C(C)C [BCY10987, MMAE-PAB-(Dab-Dpa-Glu)-BCY3900] | > 57.8 h | 100% | 104.27% | 90.6% | 90.2% | 94% | 91.48% | > 57.8 h | –
2 | – | – | – | – | – | CC[C@H](C)[C@@H]([C@@H](CC(=O)N1CCC[C@H]1[C@H](OC)[C@@H](C)C(=O)N[C@H](C)[C@@H](O)c1ccccc1)OC)N(C)C(=O)[C@@H](NC(=O)[C@H](C(C)C)N(C)C(=O)OCc1ccc(NC(=O)[C@H](CN)NC(=O)[C@@H](NC(=O)[C@H](CCC(=O)O)NC(=O)Cn2cc(CCC(=O)NCCC(=O)N(C)CC(=O)N(C)CC(=O)N(C)CC(=O)N(C)CC(=O)N(C)CC(=O)N(C)CC(=O)N(C)CC(=O)N(C)CC(=O)N(C)CC(=O)N(C)CC(=O)N[C@@H](C)C(=O)N[C@H]3CN(C)Cc4cc5cc(c4)CN(C)C[C@@H](C(N)=O)NC(=O)[C@H](C(C)(C)C)NC(=O)[C@H](CC(=O)O)NC(=O)[C@H](Cc4ccc(O)cc4)NC(=O)[C@H](Cc4ccccc4)NC(=O)[C@H](CC(=O)O)NC(=O)[C@H](CCC(=O)O)NC(=O)[C@H](CSC5)NC(=O)[C@@H](C)NC(=O)[C@H](Cc4cccc5ccccc45)NC(=O)[C@H](CCC(=O)O)NC(=O)[C@H](CC(N)=O)NC(=O)[C@@H](C)NC3=O)nn2)C(C)C)cc1)C(C)C [BCY10982, MMAE-PAB-(Dap-Val-Glu)-BCY3900] | 55.9 h | 100% | 85.435% | 82.3% | 73.1% | 72.3% | 73.91% | > 57.8 h | –
3 | 6.0 fold | 2.4 h | 0.6% | 0% | 0% | CCn1cc(C(=O)O)c(=O)c2cc(F)c(N3CCN(C(=O)OCc4ccc(NC(=O)[C@H](CCNC(=N)N)NC(=O)[C@@H](NC(=O)CCCC(=O)N(C)C)C(C)C)cc4)CC3)cc21 [BCY9423] | – | – | – | – | – | – | – | – | –
4 | 6.3 fold | 2.5 h | 0% | 0% | 0% | CCn1cc(C(=O)O)c(=O)c2cc(F)c(N3CCN(C(=O)OCc4ccc(NC(=O)[C@H](CCNC(=N)NC)NC(=O)[C@@H](NC(=O)CCCC(=O)N(C)C)C(C)C)cc4)CC3)cc21 [BCY9477] | – | – | – | – | – | – | – | – | –
5 | 3.4 fold | 1.4 h | 72% | 10% | 0% | CCn1cc(C(=O)O)c(=O)c2cc(F)c(N3CCN(C(=O)OCc4ccc(NC(=O)[C@H](CNC(=N)N)NC(=O)[C@@H](NC(=O)CCCC(=O)N(C)C)C(C)C)cc4)CC3)cc21 [BCY10300] | – | – | – | – | – | – | – | – | –
6 | – | – | – | – | – | CC[C@H](C)[C@@H]([C@@H](CC(=O)N1CCC[C@H]1[C@H](OC)[C@@H](C)C(=O)N[C@H](C)[C@@H](O)c1ccccc1)OC)N(C)C(=O)[C@@H](NC(=O)[C@H](C(C)C)N(C)C(=O)OCc1ccc(NC(=O)[C@H](CCN)NC(=O)[C@@H](NC(=O)Cn2cc(CCC(=O)NCCC(=O)N(C)CC(=O)N(C)CC(=O)N(C)CC(=O)N(C)CC(=O)N(C)CC(=O)N(C)CC(=O)N(C)CC(=O)N(C)CC(=O)N(C)CC(=O)N(C)CC(=O)N[C@@H](C)C(=O)N[C@H]3CN(C)Cc4cc5cc(c4)CN(C)C[C@@H](C(N)=O)NC(=O)[C@H](C(C)(C)C)NC(=O)[C@H](CC(=O)O)NC(=O)[C@H](Cc4ccc(O)cc4)NC(=O)[C@H](Cc4ccccc4)NC(=O)[C@H](CC(=O)O)NC(=O)[C@H](CCC(=O)O)NC(=O)[C@H](CSC5)NC(=O)[C@@H](C)NC(=O)[C@H](Cc4cccc5ccccc45)NC(=O)[C@H](CCC(=O)O)NC(=O)[C@H](CC(N)=O)NC(=O)[C@@H](C)NC3=O)nn2)C(C)C)cc1)C(C)C [BCY10989, MMAE-PAB-(Dab-Val)-BCY3900] | – | 100% | 89.4% | 60.7% | 40.4% | 23.2% | 12.8% | 2.8 h | 30.8 h
7 | 10.8 fold | 4.3 h | 0.3% | 0% | 0% | CCn1cc(C(=O)O)c(=O)c2cc(F)c(N3CCN(C(=O)OCc4ccc(NC(=O)[C@H](CCN)NC(=O)[C@@H](NC(=O)CCCC(=O)N(C)C)C(C)C)cc4)CC3)cc21 [BCY9474] | – | – | – | – | – | – | – | – | –

Row | SMILES | fold increase in half-life vs Cit-Val (in vitro; mouse, pH 7.4) | half-life at 2 μM (in vitro; mouse, pH 7.4) | % Parent remaining after incubation with CatB, T = 1 h (Cathepsin B) | % Parent remaining after incubation with CatB, T = 4 h (Cathepsin B) | % Parent remaining after incubation with CatB, T = 24 h (Cathepsin B) | half-life at 2 μM (in vitro; [1]) | % Parent remaining after incubation with CatB, 0 h (Cathepsin B) | % Parent remaining after incubation with CatB, 1 h (Cathepsin B) | % Parent remaining after incubation with CatB, 2 h (Cathepsin B) | % Parent remaining after incubation with CatB, 4 h (Cathepsin B) | % Parent remaining after incubation with CatB, 6 h (Cathepsin B) | % Parent remaining after incubation with CatB, 24 h (Cathepsin B) | half-life at 40 μM (Cathepsin B) | half-life at 2 μM (in vitro; pH 7.4, Mouse plasma t1/2 expt 2 (EDTA), BTCs, EDTA anticoagulant, experiment 2)
8 | CCn1cc(C(=O)O)c(=O)c2cc(F)c(N3CCN(C(=O)OCc4ccc(NC(=O)[C@H](CCCNC(N)=O)NC(=O)[C@@H](NC(=O)[C@H](CCC(=O)O)NC(=O)CCCC(=O)N(C)C)C(C)C)cc4)CC3)cc21 [BCY9696] | 25.1 fold | 10.8 h | 0% | 0% | 0% | – | – | – | – | – | – | – | – | –
9 | CCn1cc(C(=O)O)c(=O)c2cc(F)c(N3CCN(C(=O)OCc4ccc(NC(=O)[C@H](CN)NC(=O)[C@@H](NC(=O)[C@H](CCC(=O)O)NC(=O)CCCC(=O)N(C)C)C(C)C)cc4)CC3)cc21 [BCY10297] | 19.3 fold | 15.5 h | 75% | 15% | 0% | – | – | – | – | – | – | – | – | –
10 | CCn1cc(C(=O)O)c(=O)c2cc(F)c(N3CCN(C(=O)OCc4ccc(NC(=O)[C@H](CCNC(=N)N)NC(=O)[C@@H](NC(=O)[C@H](CCC(=O)O)NC(=O)CCCC(=O)N(C)C)C(C)C)cc4)CC3)cc21 [BCY9695] | 34.1 fold | 14.3 h | 0% | 0% | 0% | – | – | – | – | – | – | – | – | –
